Where two headings read alike, the source gives them in different places.
System: adult e-cigarette users
Details: for Saliva Cotinine Actual Value, Mean / Saliva Cotinine Actual Value, Median / Saliva Cotinine Change from Baseline, Mean / Saliva Cotinine Change from Baseline, Median: 12 Weeks arm, All Randomized Set; for Saliva Cotinine Change from Baseline, LS Means / Saliva Cotinine Change from Baseline, LS Means Difference from Placebo: repeated-measures ANOVA
Text: A second measurement consisted of biochemically verified continuous vaping abstinence at any time during treatment, with vaping abstinence at Week 3-6 or Week 6-9 for of cytisinicline treatment vs placebo. 7-day point prevalence rates were compared for vaping abstinence (Week 2 to 12) (FIG. 62). An additional measurement included reduction in daily vaping as measured by cotinine, where cytisinicline treatment vs placebo for a reduction in nicotine vaping using weekly quantitative cotinine levels from Week 2 to Week 12. Safety was assessed by adverse effects and serious adverse effects, considering number, severity, and attribution to study drug.
Cotinine: The data were analyzed by visit and also using a repeated measures model. […] Cotinine values less than 1 were converted to 1 due to asymmetry.

With `O=c1cccc2n1C[C@@H]1CNC[C@H]2C1` [cytisine, (−)-Cytisine] as the compound, how does the “Saliva Cotinine Actual Value, Mean” value (Week 2) read?
Its value is 133.598 ng/mL.

And the “Saliva Cotinine Actual Value, Median” value (Week 2)?
Its value is 70.200 ng/mL.

And the “Saliva Cotinine Change from Baseline, Mean” value (Week 2)?
Its value is -185.522 ng/mL.

What about the “Saliva Cotinine Change from Baseline, Median” value (Week 2) of the same compound?
The value was -182.015 ng/mL.

And the “Saliva Cotinine Change from Baseline, LS Means” value (Week 2)?
Its value is -181.306 ng/mL.

What about the “Saliva Cotinine Change from Baseline, LS Means Difference from Placebo” value (Week 2) of the same compound?
Its value is -32.506 ng/mL.

And the “Saliva Cotinine Actual Value, Mean” value (Week 3)?
The value was 112.224 ng/mL.

And the “Saliva Cotinine Actual Value, Median” value (Week 3)?
Its value is 2.495 ng/mL.

And the “Saliva Cotinine Change from Baseline, Mean” value (Week 3)?
The value was -210.563 ng/mL.

And the “Saliva Cotinine Change from Baseline, Median” value (Week 3)?
The value was -210.500 ng/mL.

What about the “Saliva Cotinine Change from Baseline, LS Means” value (Week 3) of the same compound?
The value was -205.329 ng/mL.

And the “Saliva Cotinine Change from Baseline, LS Means Difference from Placebo” value (Week 3)?
Its value is -72.832 ng/mL.

What about the “Saliva Cotinine Actual Value, Mean” value (Week 4) of the same compound?
The value was 112.055 ng/mL.

And the “Saliva Cotinine Actual Value, Median” value (Week 4)?
The value was 1.710 ng/mL.

And the “Saliva Cotinine Change from Baseline, Mean” value (Week 4)?
Its value is -206.833 ng/mL.

And the “Saliva Cotinine Change from Baseline, Median” value (Week 4)?
The value was -203.500 ng/mL.

What about the “Saliva Cotinine Change from Baseline, LS Means” value (Week 4) of the same compound?
Its value is -202.672 ng/mL.

What about the “Saliva Cotinine Change from Baseline, LS Means Difference from Placebo” value (Week 4) of the same compound?
Its value is -74.090 ng/mL.

What about the “Saliva Cotinine Actual Value, Mean” value (Week 5) of the same compound?
The value was 111.201 ng/mL.

What about the “Saliva Cotinine Actual Value, Median” value (Week 5) of the same compound?
Its value is 1.565 ng/mL.

And the “Saliva Cotinine Change from Baseline, Mean” value (Week 5)?
Its value is -204.721 ng/mL.

What about the “Saliva Cotinine Change from Baseline, Median” value (Week 5) of the same compound?
The value was -187.000 ng/mL.

What about the “Saliva Cotinine Change from Baseline, LS Means” value (Week 5) of the same compound?
The value was -201.526 ng/mL.

What about the “Saliva Cotinine Change from Baseline, LS Means Difference from Placebo” value (Week 5) of the same compound?
Its value is -83.364 ng/mL.

And the “Saliva Cotinine Actual Value, Mean” value (Week 6)?
The value was 123.705 ng/mL.

And the “Saliva Cotinine Actual Value, Median” value (Week 6)?
Its value is 1.480 ng/mL.

What about the “Saliva Cotinine Change from Baseline, Mean” value (Week 6) of the same compound?
Its value is -199.608 ng/mL.

And the “Saliva Cotinine Change from Baseline, Median” value (Week 6)?
Its value is -168.500 ng/mL.

And the “Saliva Cotinine Change from Baseline, LS Means” value (Week 6)?
The value was -196.960 ng/mL.

And the “Saliva Cotinine Change from Baseline, LS Means Difference from Placebo” value (Week 6)?
The value was -79.952 ng/mL.

And the “Saliva Cotinine Actual Value, Mean” value (Week 7)?
The value was 133.054 ng/mL.

What about the “Saliva Cotinine Actual Value, Median” value (Week 7) of the same compound?
Its value is 0 ng/mL.

And the “Saliva Cotinine Change from Baseline, Mean” value (Week 7)?
The value was -181.605 ng/mL.

And the “Saliva Cotinine Change from Baseline, Median” value (Week 7)?
Its value is -184.000 ng/mL.

What about the “Saliva Cotinine Change from Baseline, LS Means” value (Week 7) of the same compound?
The value was -179.597 ng/mL.

And the “Saliva Cotinine Change from Baseline, LS Means Difference from Placebo” value (Week 7)?
The value was -49.309 ng/mL.

What about the “Saliva Cotinine Actual Value, Mean” value (Week 8) of the same compound?
The value was 125.966 ng/mL.

What about the “Saliva Cotinine Actual Value, Median” value (Week 8) of the same compound?
The value was 0 ng/mL.

And the “Saliva Cotinine Change from Baseline, Mean” value (Week 8)?
The value was -188.539 ng/mL.

And the “Saliva Cotinine Change from Baseline, Median” value (Week 8)?
The value was -194.655 ng/mL.

What about the “Saliva Cotinine Change from Baseline, LS Means” value (Week 8) of the same compound?
The value was -192.048 ng/mL.

And the “Saliva Cotinine Change from Baseline, LS Means Difference from Placebo” value (Week 8)?
Its value is -78.107 ng/mL.

And the “Saliva Cotinine Actual Value, Mean” value (Week 9)?
Its value is 121.622 ng/mL.

What about the “Saliva Cotinine Actual Value, Median” value (Week 9) of the same compound?
Its value is 2.030 ng/mL.

And the “Saliva Cotinine Change from Baseline, Mean” value (Week 9)?
Its value is -202.849 ng/mL.

And the “Saliva Cotinine Change from Baseline, Median” value (Week 9)?
Its value is -199.000 ng/mL.

What about the “Saliva Cotinine Change from Baseline, LS Means” value (Week 9) of the same compound?
The value was -195.014 ng/mL.

What about the “Saliva Cotinine Change from Baseline, LS Means Difference from Placebo” value (Week 9) of the same compound?
The value was -86.006 ng/mL.

And the “Saliva Cotinine Actual Value, Mean” value (Week 10)?
The value was 127.718 ng/mL.

What about the “Saliva Cotinine Actual Value, Median” value (Week 10) of the same compound?
Its value is 4.100 ng/mL.

What about the “Saliva Cotinine Change from Baseline, Mean” value (Week 10) of the same compound?
Its value is -200.886 ng/mL.

And the “Saliva Cotinine Change from Baseline, Median” value (Week 10)?
Its value is -197.500 ng/mL.

What about the “Saliva Cotinine Change from Baseline, LS Means” value (Week 10) of the same compound?
Its value is -196.615 ng/mL.

What about the “Saliva Cotinine Change from Baseline, LS Means Difference from Placebo” value (Week 10) of the same compound?
The value was -62.680 ng/mL.

What about the “Saliva Cotinine Actual Value, Mean” value (Week 11) of the same compound?
The value was 137.834 ng/mL.

What about the “Saliva Cotinine Actual Value, Median” value (Week 11) of the same compound?
The value was 10.900 ng/mL.

What about the “Saliva Cotinine Change from Baseline, Mean” value (Week 11) of the same compound?
Its value is -187.683 ng/mL.

And the “Saliva Cotinine Change from Baseline, Median” value (Week 11)?
Its value is -177.500 ng/mL.

What about the “Saliva Cotinine Change from Baseline, LS Means” value (Week 11) of the same compound?
The value was -186.878 ng/mL.

And the “Saliva Cotinine Change from Baseline, LS Means Difference from Placebo” value (Week 11)?
Its value is -63.262 ng/mL.

And the “Saliva Cotinine Actual Value, Mean” value (Week 12)?
The value was 157.889 ng/mL.

What about the “Saliva Cotinine Actual Value, Median” value (Week 12) of the same compound?
Its value is 36.550 ng/mL.

And the “Saliva Cotinine Change from Baseline, Mean” value (Week 12)?
The value was -172.588 ng/mL.

What about the “Saliva Cotinine Change from Baseline, Median” value (Week 12) of the same compound?
The value was -178.000 ng/mL.

What about the “Saliva Cotinine Change from Baseline, LS Means” value (Week 12) of the same compound?
Its value is -167.731 ng/mL.

And the “Saliva Cotinine Change from Baseline, LS Means Difference from Placebo” value (Week 12)?
Its value is -57.329 ng/mL.

And the “Saliva Cotinine Actual Value, Mean” value (Week 16)?
Its value is 181.742 ng/mL.

And the “Saliva Cotinine Actual Value, Median” value (Week 16)?
Its value is 140.000 ng/mL.

What about the “Saliva Cotinine Change from Baseline, Mean” value (Week 16) of the same compound?
The value was -146.358 ng/mL.

And the “Saliva Cotinine Change from Baseline, Median” value (Week 16)?
Its value is -116.000 ng/mL.

What about the “Saliva Cotinine Change from Baseline, LS Means” value (Week 16) of the same compound?
The value was -145.035 ng/mL.

And the “Saliva Cotinine Change from Baseline, LS Means Difference from Placebo” value (Week 16)?
Its value is -54.792 ng/mL.

Reference: patent US20260158011A1 (Achieve Life Sciences, Inc., priority 2023, published 2026)
